# Key:
# Test in all cases: Combined drug treatment cell viability, CellTiter-Glo assay (Example 2)
# Type in all cases: cell-based
# Details in all cases: 3 days
# [1] = system: OCI-LY-3
# [2] = system: OCI-LY-10
# [3] = system: SU-DHL-2
# [4] = system: U2932
# [5] = system: TMD8
# [6] = system: HBL-1
# [7] = ibrutinib 0 nM, JAK3 10 μM / MCL-1 3 μM alone
# [8] = ibrutinib 0.0512 nM, JAK3 10 μM / MCL-1 3 μM / medium alone
# [9] = ibrutinib 0.256 nM, JAK3 10 μM / MCL-1 3 μM / medium alone
# [10] = ibrutinib 1.28 nM, JAK3 10 μM / MCL-1 3 μM / medium alone
# [11] = ibrutinib 6.4 nM, JAK3 10 μM / MCL-1 3 μM / medium alone
# [12] = ibrutinib 32 nM, JAK3 10 μM / MCL-1 3 μM / medium alone
# [13] = ibrutinib 160 nM, JAK3 10 μM / MCL-1 3 μM / medium alone
# [14] = ibrutinib 800 nM, JAK3 10 μM / MCL-1 3 μM / medium alone
# [15] = ibrutinib 20000 nM, JAK3 10 μM / MCL-1 3 μM / medium alone
# [16] = ibrutinib 40000 nM, JAK3 10 μM / MCL-1 3 μM / medium alone
smiles,measurement,setting,value
Cc1csc(=NC2CCCCC2)n1/N=C/c1ccc(O)c(O)c1O [MIM1],luminescence (CellTiter-Glo),[1]; [7],80237.62
same,luminescence (CellTiter-Glo),[1]; [8],76311.68
same,luminescence (CellTiter-Glo),[1]; [9],80052.59
same,luminescence (CellTiter-Glo),[1]; [10],80436.06
same,luminescence (CellTiter-Glo),[1]; [11],73884.80
same,luminescence (CellTiter-Glo),[1]; [12],75378.47
same,luminescence (CellTiter-Glo),[1]; [13],65609.22
same,luminescence (CellTiter-Glo),[1]; [14],74844.82
same,luminescence (CellTiter-Glo),[1]; [15],75182.71
same,luminescence (CellTiter-Glo),[1]; [16],74901.14
same,luminescence (CellTiter-Glo),[2]; [7],43143.62
same,luminescence (CellTiter-Glo),[2]; [8],33524.45
same,luminescence (CellTiter-Glo),[2]; [9],26007.29
same,luminescence (CellTiter-Glo),[2]; [10],18751.19
same,luminescence (CellTiter-Glo),[2]; [11],11024.10
same,luminescence (CellTiter-Glo),[2]; [12],8025.84
same,luminescence (CellTiter-Glo),[2]; [13],8938.24
same,luminescence (CellTiter-Glo),[2]; [14],9390.40
same,luminescence (CellTiter-Glo),[2]; [15],9228.91
same,luminescence (CellTiter-Glo),[2]; [16],10886.83
same,luminescence (CellTiter-Glo),[3]; [7],59686.0
same,luminescence (CellTiter-Glo),[3]; [8],55451.4
same,luminescence (CellTiter-Glo),[3]; [9],53088.1
same,luminescence (CellTiter-Glo),[3]; [10],54122.7
same,luminescence (CellTiter-Glo),[3]; [11],53424.9
same,luminescence (CellTiter-Glo),[3]; [12],51898.4
same,luminescence (CellTiter-Glo),[3]; [13],50938.7
same,luminescence (CellTiter-Glo),[3]; [14],51419.9
same,luminescence (CellTiter-Glo),[3]; [15],17553.4
same,luminescence (CellTiter-Glo),[3]; [16],49251.8
same,luminescence (CellTiter-Glo),[4]; [7],59686.00
same,luminescence (CellTiter-Glo),[4]; [8],55451.36
same,luminescence (CellTiter-Glo),[4]; [9],53088.09
same,luminescence (CellTiter-Glo),[4]; [10],54122.68
same,luminescence (CellTiter-Glo),[4]; [11],53424.93
same,luminescence (CellTiter-Glo),[4]; [12],51898.43
same,luminescence (CellTiter-Glo),[4]; [13],50938.68
same,luminescence (CellTiter-Glo),[4]; [14],51419.90
same,luminescence (CellTiter-Glo),[4]; [15],17553.45
same,luminescence (CellTiter-Glo),[4]; [16],49251.78
same,luminescence (CellTiter-Glo),[5]; [7],36019.47
same,luminescence (CellTiter-Glo),[5]; [8],19059.39
same,luminescence (CellTiter-Glo),[5]; [9],18570.62
same,luminescence (CellTiter-Glo),[5]; [10],18591.98
same,luminescence (CellTiter-Glo),[5]; [11],19112.81
same,luminescence (CellTiter-Glo),[5]; [12],19032.68
same,luminescence (CellTiter-Glo),[5]; [13],19452.01
same,luminescence (CellTiter-Glo),[5]; [14],18063.15
same,luminescence (CellTiter-Glo),[5]; [15],4767.52
same,luminescence (CellTiter-Glo),[5]; [16],15624.64
same,luminescence (CellTiter-Glo),[6]; [7],51241.07
same,luminescence (CellTiter-Glo),[6]; [8],27898.48
same,luminescence (CellTiter-Glo),[6]; [9],29488.62
same,luminescence (CellTiter-Glo),[6]; [10],35637.34
same,luminescence (CellTiter-Glo),[6]; [11],30743.57
same,luminescence (CellTiter-Glo),[6]; [12],31548.03
same,luminescence (CellTiter-Glo),[6]; [13],32832.47
same,luminescence (CellTiter-Glo),[6]; [14],28815.56
same,luminescence (CellTiter-Glo),[6]; [15],7366.12
same,luminescence (CellTiter-Glo),[6]; [16],26941.18

# Source: patent US9730938B2, “Bruton's tyrosine kinase inhibitor combinations and uses thereof” (Pharmacyclics LLC, priority 2014, dated 2017)
